Experimental findings from patent publication US12435087B2, “Modulators of DCN-1 and methods of use thereof” (Cellarity, Inc., priority 2023, dated 2025) are described below.

Assay [1] concerns the target T1, DCN1 (DCUND1) protein PONY domain (Homo sapiens (Human), UniProt Q96GG9). Briefly: Off-rate measurement of reversible covalent molecules (jump dilution TR-FRET with Cy5 probe). The note with it: binding mode from off-rate measurement. On the procedure:
A TR-FRET assay was performed to classify the compounds as an irreversible covalent binder, a reversible covalent binder or a reversible binder.
An assay to measure the off-rate of reversible covalent molecules was developed. A typical covalent compound is assumed to stay bound to a protein for at least the life of that protein in the cell. In reality, there is a range of how long a covalent compounds remains bound before a reverse reaction takes place. Thus, some covalent bonds can be labeled as reversible as their reverse reaction takes place in a measurable amount of time under physiological conditions. The assay capitalizes on the range of covalent binders by using a high affinity covalent binder as a probe to displace the more reversible binders in an adaptation of the jump dilution method.
In this version of the jump dilution method, the increase in covalent probe binding over time was measured through a TR-FRET reaction between the covalent probe and the biotinylated target protein.
The recombinant form of the DCN1 (DCUND1) protein PONY domain was produced using an E. coli expression system at Viva Biotech (China). The DCN1 protein was biotinylated (EZ sulfo-NHS-LC-biotin; Thermofisher) for labeling with streptavidin terbium (Tb) cryptate in the reaction. This biotinylated protein was used in two forms of the TR-FRET assay as described below.
The off-rate measurement is executed in two steps based on the jump dilution method. […] The greatest dilution allowed within the constraints of the assay was chosen. These factors allow a competitive advantage for the covalent probe to replace the test compound when that compound releases from the target protein. The actual measure is the rate of increased TR-FRET signal as the covalent probe replaces the test compound over time. […] The resulting time dependent curve of the TR-FRET signal is fit to the following equation: Y=Y0+(Plateau−Y0)*(1−exp(−K*x))
K is the rate constant (1/unit of time). The residence time is defined as the inverse of K, the rate constant. The half-life is calculated as ln(2)/K.

The target of assay [2] is T1, DCN1 (DCUND1) protein PONY domain. The assay can be described thus: TR-FRET assay (binding to DCN-1, displacement of FAM-labeled probe). The essentials: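 Compounds read at 1, 5 and 24 h, 0.1% final DMSO, by TR-FRET between terbium-streptavidin on biotinylated DCN1 PONY domain (E. coli) and a FAM-tagged non-covalent inhibitor probe. Two setups used, 5 nM protein with 20 nM labelled probe, or 0.31 nM protein with 100 nM labelled plus 800 nM unlabelled probe; buffer had TritonX and 200 mM NaCl. % activity relative to high (with probe) and low (without probe) controls.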
For orientation: TR-FRET usually uses a lanthanide donor and a delayed reading to cut background.

The target of a further assay is DCN1 protein (Homo sapiens (Human), UniProt Q96GG9). The assay can be described thus: Intact protein MS analysis with the RapidFire-TOF system (covalent adduct formation). It counts as binding. The note with it: 400 nM DCN1, incubated at room temperature for 3 hours. A digest of the protocol: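 Tag-free His-TEV-DCN1 expressed in E. coli at 400 nM in 25 mM Tris-HCl, 200 mM NaCl, 1 mM DTT, incubated with 11 compound concentrations at room temperature for 3 h unless otherwise specified. Quenched with 0.2% formic acid; intact-protein RapidFire Q-TOF MS, deconvoluted to detect parent and compound-adduct masses.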
Sequence of DCN1 protein (Q96GG9 whole entry): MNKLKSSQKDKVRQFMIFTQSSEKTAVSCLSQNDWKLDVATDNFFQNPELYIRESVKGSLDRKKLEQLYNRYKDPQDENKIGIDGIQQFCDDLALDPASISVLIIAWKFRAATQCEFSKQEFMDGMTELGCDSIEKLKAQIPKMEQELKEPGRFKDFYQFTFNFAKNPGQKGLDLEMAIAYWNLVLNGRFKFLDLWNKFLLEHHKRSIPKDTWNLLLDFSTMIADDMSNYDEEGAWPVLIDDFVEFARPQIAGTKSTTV

The target in assay [3] is DCN2 (DCUND2) protein PONY domain (Homo sapiens (Human), UniProt Q6PH85). The assay can be described thus: DCN2 TR-FRET assay, measurement of Kinact/KI. The class given is binding. How it is done: A TR-FRET Assay was performed to evaluate the ability of the compounds to bind DCN-2. The time resolved—Forster's resonance energy transfer (TR-FRET) assay was designed following the protocol established in (Scott et al., Nat Chem Biol. 2017 August; 13(8): 850-857). A recombinant form of the DCN2 (DCUND2) protein PONY domain was produced using an E. coli expression system at Viva Biotech China. The DCN2 protein was biotinylated (EZ sulfo-NHS-LC-biotin; Thermofisher) for labeling with 2.5 nM streptavidin terbium (Tb) cryptate in the reaction. The probe was changed to a non-covalent DCN1 inhibitor labeled with carboxyfluorescein (FAM; Zhou el al., Nat Commun. 2017; 8: 1150). Buffer conditions were modified to enhance protein stability by replacing TritonX with 0.05% Tween20 and increasing NaCl to 200 mM. […] The Kinact and KI measurements were taken to allow for continuous reads over 24 hrs. Plates were read every 5 min up to 1 hr, every 15 min up to 5 hr, and every hour up to 10 hours. Kinact and KI were calculated based on the following equations (Krippendorff B F, et al. Mechanism-based inhibition: deriving K(I) and k(inact) directly from time-dependent IC(50) values. J BiomolScreen. 2009; Mons E et al. A Comprehensive Guide for Assessing Covalent Inhibition in Enzymatic Assays Illustrated with Kinetic Simulations. […] The Kinact and KI values could be estimated from the tight curves of the IC50 values over time. [formula]
Sequence of DCN2 (DCUND2) protein PONY domain (Q6PH85 60-248): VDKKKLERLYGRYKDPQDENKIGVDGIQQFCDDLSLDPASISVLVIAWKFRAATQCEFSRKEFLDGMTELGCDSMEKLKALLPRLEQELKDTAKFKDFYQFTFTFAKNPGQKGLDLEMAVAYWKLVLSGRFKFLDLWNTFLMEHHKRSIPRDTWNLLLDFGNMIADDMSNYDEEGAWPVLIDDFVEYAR

Where [4] appears, read: 24 hr after treatment with compound, read-out: TR FRET IC50 24 hr.
Where [5] appears, read: read-out: TR FRET IC50 1 hr, 1 hr after treatment with compound.
Where [6] appears, read: TR FRET IC50 1 hr (nM), 1 hr after treatment with compound.

Like-named read-outs stand apart in the source and are kept apart here. Where only a bound is given, the exact number is not on record here.

T1 sequence (Q96GG9 60-248): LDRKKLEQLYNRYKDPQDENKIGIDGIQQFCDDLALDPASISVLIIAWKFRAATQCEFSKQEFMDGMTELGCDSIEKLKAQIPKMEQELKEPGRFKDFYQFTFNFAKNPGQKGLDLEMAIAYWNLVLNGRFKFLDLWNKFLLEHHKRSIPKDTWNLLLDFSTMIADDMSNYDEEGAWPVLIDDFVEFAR

For the molecule `C=C(C(=O)NCc1cccc([C@@H]2c3cnn(-c4ccccc4)c3N(CC)C(=O)[C@H]2NC(=O)c2nccc(C(F)(F)F)n2)c1)[C@@H](C)N(C)C1COC1` [Compound I-300], in assay [1], the Category result is recorded as “irreversible”. Moreover, the IC50 in assay [2] (setting [4]) and in assay [2] (setting [5]) was at most 200 nM each time.
As to `C/C=C(\CN1CCN(C2COC2)CC1)C(=O)Nc1cccc([C@@H]2c3cnn(-c4ccccc4)c3N(CC)C(=O)[C@H]2NC(=O)c2nccc(C(F)(F)F)n2)c1` [Compound I-232, N-((4R,5S)-7-ethyl-4-(3-((E)-2-((4-(oxetan-3-yl)piperazin-1-yl)methyl)but-2-enamido)phenyl)-6-oxo-1-phenyl-4,5,6,7-tetrahydro-1H-pyrazolo[3,4-b]pyridin-5-yl)-4-(trifluoromethyl)pyrimidine-2-carboxamide], the IC50 in assay [2] (setting [4]) and in assay [2] (setting [6]) was at most 200 nM in each case. For the same molecule, the Emax at DCN1 protein was 80 to 100%.
Turning to `C=CC(=O)Nc1cccc([C@H]2c3c(C)nn(-c4ccccc4)c3N(CC)C(=O)[C@@H]2NC(=O)c2cccc(C(F)(F)F)c2)c1` (racemic) [Compound I-77], the IC50 is 200 to 1000 nM in assay [2] (setting [4]) and 1000 to 3000 nM in assay [2] (setting [6]). The Emax on DCN1 protein was in the range of 80 to 100%.
As to `C=C(CN1CCOCC1)C(=O)NC[C@@H](NC(=O)[C@H](Cc1nc2ccc(C(C)C)cc2s1)NC(=O)CC)C1CCCCC1` [Compound C1, reference compound], in assay [3], the Ki lay in the range of 0.0002 to 0.0005 µM, the kinact is 0.005 to 0.00833 s⁻¹ and the kinact/KI is 8.33e+06 to 1.67e+07 M⁻¹ s⁻¹.
As for `CCN1C(=O)[C@H](NC(=O)c2cccc(C(F)(F)F)c2)[C@@H](c2cccc(NC(=O)/C=C/C(=O)OC)c2)c2c(C)nn(-c3ccccc3)c21` (racemic) [Compound I-141], the IC50 in assay [2] (setting [4]) and in assay [2] (setting [5]) was at most 200 nM throughout. On DCN1 protein, this molecule registered an Emax of 80 to 100%.
For the molecule `CCN1C(=O)[C@@H](NC(=O)c2nccc(C(F)(F)F)n2)[C@H](c2cccc(NC(=O)C3=CCN(C4COC4)C3)c2)c2c(C)nn(-c3ccccc3)c21` [Compound I-226], the concentration for half-maximal inhibition (IC50) in assay [2] (setting [4]) is 200 to 1000 nM; in assay [2] (setting [6]), 1000 to 3000 nM. Moreover, the Emax on DCN1 protein lay in the range of 0 to 30%.
In the same order, the values of `CCN1C(=O)[C@@H](NC(=O)c2cccc(C(F)(F)F)c2)[C@@H](c2cccc(NC(=O)[C@H](F)Cl)c2)c2c(C)nn(-c3ccccc3)c21` (mixture of isomers) [Compound I-18] are above 3000 nM, above 3000 nM and 0 to 30%.
In the same order, the values of `C=C(CN1CCOCC1)C(=O)NCc1cccc([C@@H]2c3cnn(-c4ccccc4)c3N(CC)C(=O)[C@H]2NC(=O)c2ccnn2C(F)(F)F)c1` [Compound I-86] are 1000 to 3000 nM, 1000 to 3000 nM and 0 to 30%.
As for `C=C(C(=O)NCc1cccc([C@@H]2c3cnn(-c4ccccc4)c3N(CC)C(=O)[C@H]2NC(=O)c2nccc(C(F)(F)F)n2)c1)C(C)N1CC2(COC2)C1` (stereo partly drawn) [Compound I-221, N-((4R,5S)-7-ethyl-4-(3-((2-methylene-3-(2-oxa-6-azaspiro[3.3]heptan-6-yl)butanamido)methyl)phenyl)-6-oxo-1-phenyl-4,5,6,7-tetrahydro-1H-pyrazolo[3,4-b]pyridin-5-yl)-4-(trifluoromethyl)pyrimidine-2-carboxamide], the IC50 in assay [2] (setting [4]) and in assay [2] (setting [5]) was at most 200 nM throughout. Besides, the Emax at DCN1 protein fell in the range of 80 to 100%.
As for `C=C(CN(C)C)C(=O)Nc1cccc([C@H]2c3c(C)nn(-c4ccccc4)c3N(CC)C(=O)[C@@H]2NC(=O)c2cccc(C(F)(F)F)c2)c1` (racemic) [Compound I-146], the IC50 in assay [2] (setting [4]) and in assay [2] (setting [5]) was at most 200 nM each time. In addition, the Emax on DCN1 protein lay in the range of 80 to 100%.
Consider `CCN1C(=O)[C@H](NC(=O)c2cccc(C(F)(F)F)c2)[C@@H](c2cccc(NC(=O)CC#N)c2)c2c(C)nn(-c3ccccc3)c21` (racemic) [Compound I-103], for which the half-maximal inhibitory concentration (IC50) in assay [2] (setting [4]) and in assay [2] (setting [6]) was 1000 to 3000 nM throughout. Further, on DCN1 protein, the Emax was 0 to 30%.
Consider `C/C=C(\CN1CCOCC1)C(=O)Nc1cccc([C@@H]2c3c(C)nn(-c4ccccc4)c3N(CC)C(=O)[C@H]2NC(=O)c2cccc(C(F)(F)F)c2)c1` (racemic) [Compound I-142], for which the IC50 in assay [2] (setting [4]) and in assay [2] (setting [6]) was at most 200 nM in each case. Also, the Emax on DCN1 protein fell in the range of 80 to 100%.
Turning to `C=C(C(=O)NCc1cccc([C@@H]2c3cnn(-c4ccccc4)c3N(CC)C(=O)[C@H]2NC(=O)c2nccc(C(F)(F)F)n2)c1)C(C)N(C)C1COC1` (stereo partly drawn) [Compound I-217], the IC50 in assay [2] (setting [4]) and in assay [2] (setting [5]) was at most 200 nM in each case. The same molecule gave an Emax on DCN1 protein of 80 to 100%.
For the molecule `C=C(CN1CCN(C2COC2)CC1)C(=O)N(C)Cc1cccc([C@@H]2c3cnn(-c4ccccc4)c3N(CC)C(=O)[C@H]2NC(=O)c2nccc(C(F)(F)F)n2)c1` [Compound I-223], the IC50 in assay [2] (setting [4]) and in assay [2] (setting [5]) was at most 200 nM throughout. This molecule gave an Emax at DCN1 protein of 80 to 100%.
With `CCN1C(=O)[C@@H](NC(=O)c2cccc(C(F)(F)F)c2)[C@H](c2cccc(NC(=O)C3=C(C(=O)OC)CC3)c2)c2c(C)nn(-c3ccccc3)c21` [Compound I-34], the IC50 in assay [2] (setting [4]) and in assay [2] (setting [5]) was at most 200 nM in each case. The molecule further came in with an Emax at DCN1 protein of 80 to 100%.
`CCN1C(=O)[C@H](NC(=O)c2cccc(C(F)(F)F)c2)[C@@H](c2cccc(NC(=O)C3=CCC3)c2)c2c(C)nn(-c3ccccc3)c21` (racemic) [Compound I-78, ˜{N}—[˜{rac}-(4˜{S},5˜{R})-4-[3-(cyclobutene-1-carbonylamino)phenyl]-7-ethyl-3-methyl-6-oxo-1-phenyl-4,5-dihydropyrazolo[3,4-b]pyridin-5-yl]-3-(trifluoromethyl)benzamide]: the IC50 in assay [2] (setting [4]) fell in the range of 200 to 1000 nM; in assay [2] (setting [6]) it was 1000 to 3000 nM. The same molecule gave an Emax at DCN1 protein of 80 to 100%.
In the same order, the values of `CCN1C(=O)[C@@H](NC(=O)c2cccc(C(F)(F)F)c2)[C@@H](c2cccc(NC#N)c2)c2c(C)nn(-c3ccccc3)c21` (racemic) [Compound I-22] are above 3000 nM, above 3000 nM and 0 to 30%.
In the case of `CC#CC(=O)Nc1cccc([C@H]2c3c(C)nn(-c4ccccc4)c3N(CC)C(=O)[C@H]2NC(=O)c2cccc(C(F)(F)F)c2)c1` (racemic) [Compound I-19], the IC50 in assay [2] (setting [4]) and in assay [2] (setting [6]) was above 3000 nM in each case. Besides, at DCN1 protein, the Emax lay within 0 to 30%.
Regarding `C/C=C(\CN1CCN(C2COC2)CC1)C(=O)NCc1cccc([C@@H]2c3cnn(-c4ccccc4)c3N(CC)C(=O)[C@H]2NC(=O)c2nccc(C(F)(F)F)n2)c1` [Compound I-220], the values for the IC50 in assay [2] (setting [4]) and in assay [2] (setting [6]) were at most 200 nM and 200 to 1000 nM, respectively. On DCN1 protein, this molecule registered an Emax of 80 to 100%.

By IC50 is commonly meant the point on the concentration scale where inhibition reaches its midpoint. Broadly, the Emax is the size of the effect at its maximum, as opposed to the concentration needed. The Ki is a measure of affinity in units of concentration, obtained from inhibition or displacement. A higher Ki goes with lower affinity. One may read the kinact as the maximal first-order rate at which the target is inactivated. In general, kinact/KI refers to the maximal inactivation rate divided by the concentration that gives half of it.
